Like-named read-outs stand apart in the source and are kept apart here.
Columns and labels:
[1] = system: nontumorigenic neonatal foreskin fibroblast (NFF) cell line
[2] = system: Trichomonas vaginalis G3 trophozoites; details: for T.vaginalis_Absorbance_Rep1: replicate 1, raw absorbance; for T.vaginalis_Absorbance_Rep2: replicate 2, raw absorbance; for T. vaginalis HTS result in words: 384-well, 25 μL, 10,000 cells/mL, 48 h, biological duplicates, hit = >50% inhibition
[3] = HTS, parasite screen at 1 µg/mL, replicate 1
[4] = HTS, parasite screen at 1 µg/mL
[5] = HTS, parasite screen at 1 µg/mL, replicate 2
[6] = parasite screen at 1 µg/mL, replicate 1
[7] = parasite screen at 1 µg/mL, replicate 2
[8] = HTS replicate 1, parasite screen 1 µg/mL
[9] = HTS replicate 2, parasite screen 1 µg/mL

Compound | T.vaginalis_%inb_Rep1 [2, 3] [%] | T.vaginalis_Absorbance_Rep1 [2, 4] | T.vaginalis_%inb_Rep2 [2, 5] [%] | T.vaginalis_Absorbance_Rep2 [2, 4] | T.vaginalis_%inb_Rep1 [2, 8] [%] | T.vaginalis_%inb_Rep2 [2, 9] [%] | further results
O=C1c2c(O)cc(O)cc2OC1(O)Cc1ccc(O)c(O)c1 (stereo not shown) [BIA-A1767] | – | – | – | – | – | – | NFF_Activity ([1]; NFF_NS1 screen 5 µg/mL, single concentration): I (otherwise these were reported as inactive (I)); T.vaginalis_%inb_Rep1 ([2]; HTS single concentration, parasite screen 1 µg/mL, replicate 1): 15.13%; T.vaginalis_%inb_Rep2 ([2]; HTS single concentration, parasite screen 1 µg/mL, replicate 2): 38.61%
COC12c3c(C)cc(O)c4c(=O)occ(c34)C(=O)C1C13COC(=O)c4c(O)cc(C)c(c41)C(=O)C2C3OC(C)=O (stereo not shown) [Duclauxin] | 14.59 | 0.98 | 17.79 | 0.866 | – | – | NFF_Activity ([1]; NFF_NS1 screen at 5 µg/mL): I (otherwise these were reported as inactive (I))
CC1=C[C@H]2O[C@@H]3[C@H](O)[C@@H](O)[C@](C)([C@@]2(CO)C[C@@H]1O)[C@]31CO1 [BIA-T1932] | – | – | – | – | – | – | NFF_Activity ([1]; NFF_NS1 screen at 5 µg/mL, NFF cells): I (otherwise these were reported as inactive (I)); T.vaginalis_%inb_Rep1 [2, 6]: 10.49%; T.vaginalis_%inb_Rep2 [2, 7]: 13.71%
O=c1c2cccn2c(=O)c2cccn12 [Pyrocoll] | – | – | – | – | 15.47 | 11.29 | –
COC(=O)c1cc(O)cc(OC)c1C(=O)c1c(O)cc(C)cc1OC [Monomethylsulochrin] | – | – | – | – | 8.42 | 11.03 | –
CN(C)[C@@H]1C(O)=C(C(N)=O)C(=O)[C@@]2(O)C(O)=C3C(=O)c4c(O)cccc4[C@@](C)(O)[C@H]3C[C@@H]12 [BIA-T1334] | – | – | – | – | – | – | T.vaginalis_%inb_Rep1 [2, 6]: 9.28%; T.vaginalis_%inb_Rep2 [2, 7]: 5.48%
Milbemycin oxime | – | – | – | – | 12.53 | 12.96 | –
CCC/C=C/C=C/[C@@H]1C[C@@H](O)[C@@H](O)C(=O)[C@H]1CO [Palitantin] | – | – | – | – | 13.59 | 14.56 | –
CC(=O)OC[C@@]1(C)[C@@H]2C[C@H](OC(C)=O)[C@@]3(C)Oc4cc(-c5ccccc5)oc(=O)c4[C@H](O)[C@@H]3[C@@]2(C)CC[C@@H]1OC(C)=O [Phenylpyropene A] | – | – | – | – | 13.03 | 14.11 | –
O=C(O)c1c(=O)cccc2ssc12 [tropodithietic acid, reference compound] | 11.01 | – | 97.50 | – | – | – | T. vaginalis HTS result in words [2]: partial hits
CO[C@H]1/C=C\C=C(/C)C(=O)NC2=CC(=O)C(NCCN(C)C)=C(C[C@@H](C)C[C@H](OC)[C@H](O)[C@@H](C)/C=C(\C)[C@@H]1OC(N)=O)C2=O [17-DAAG, 17-dimethylaminoethylamino-17-demethoxygeldanamycin, reference compound] | – | – | – | – | – | – | T. vaginalis HTS result in words [2]: partial hits
COC1C(OC(N)=O)C(O)C(Oc2ccc3c(O)c(NC(=O)c4ccc(O)c(CCC(C)C)c4)c(=O)oc3c2C)OC1(C)C (stereo not shown) [Dihydronovobiocin] | 2.80 | 0.761 | 4.84 | 0.687 | – | – | –
C[C@@H]1[C@H](O)[C@@H](C)/C=C/C=C/CC/C=C/C=C/C=C/C=C/[C@H](O[C@@H]2O[C@H](C)[C@@H](O)[C@H](N)[C@@H]2O)C[C@@H]2O[C@](O)(C[C@@H](O)[C@H](O)CC[C@@H](O)C[C@@H](O)C[C@@H](O)CC(=O)O[C@H]1C)C[C@H](O)[C@H]2C(=O)O [Nystatin A1] | – | – | – | – | 11.66 | 11.87 | –
CCCNC[C@]1(O)[C@H](C)O[C@@H](O[C@H]2[C@H](C)[C@@H](O[C@@H]3O[C@H](C)C[C@H](N(C)C)[C@H]3O)[C@](C)(O)C[C@@H](C)CN[C@H](C)[C@@H](O)[C@](C)(O)[C@@H](CC)OC(=O)[C@@H]2C)C[C@@]1(C)OC [Tulathromycin] | 10.12 | – | 14.75 | – | – | – | –
C/C1=C\C(C)C(O)/C(C)=C/C(O[C@H]2O[C@H](CO)[C@@H](O)[C@H](O)[C@@H]2O)C(O)C(C)C(O)CC(O)/C=C\C(C)C(O)C(C)CCC(O)CC(O)C(C)C(O)C(C)C(O)CC(O)CC(O)C(C)C(C(C)CCCCCCN)OC(=O)CCCCCC(O)C(C)C(O)CC/C=C/C(C)C1O (stereo partly shown) [Monazomycin] | – | – | – | – | 9.53 | 13.73 | –
CO[C@H]1C[C@H](O[C@H]2[C@H](C)O[C@@H](O[C@@H]3/C(C)=C/C[C@@H]4C[C@@H](C[C@]5(C=C[C@H](C)[C@@H](C6CCCCC6)O5)O4)OC(=O)[C@H]4C=C(C)[C@@H](O)[C@H]5OC/C(=C\C=C\[C@@H]3C)[C@@]45O)C[C@@H]2OC)O[C@@H](C)[C@@H]1O [Doramectin, epi-] | 16.13 | 1.02 | 15.52 | 0.877 | – | – | –
O=C(O)C1CSC(c2ccccc2O)=N1 (stereo not shown) [Dihydroaeruginoic acid] | 11.15 | 0.916 | 12.87 | 0.798 | – | – | –
COc1ccc(/C=C/C(=O)O)cc1O [BIA-I1729] | – | – | – | – | – | – | T.vaginalis_%inb_Rep1 ([2]; replicate 1, parasite screen at 1 µg/mL): 11.16%; T.vaginalis_%inb_Rep2 ([2]; replicate 2, parasite screen at 1 µg/mL): 13.98%
CC1=CC[C@H]2C(C)(C)CCC[C@]2(C)[C@H]1CO [Drimenol] | 14.49 | 0.978 | 11.14 | 0.774 | – | – | –
CO[C@H]1C[C@H](O[C@@H]2/C(C)=C/C[C@@H]3C[C@@H](C[C@]4(C=C[C@H](C)[C@@H](C5CCCCC5)O4)O3)OC(=O)[C@@H]3C=C(C)[C@@H](O)[C@H]4OC/C(=C\C=C\[C@@H]2C)[C@]43O)O[C@@H](C)[C@@H]1O [Doramectin monosaccharide] | 13.89 | 0.967 | 12.80 | 0.797 | – | – | –
CN(C)C1C(=O)C(C(N)=O)=C(O)C2(O)C(=O)C3=C(O)c4c(O)cccc4C(C)(O)C3C(O)C12 (stereo not shown) [Epioxytetracycline] | 13.46 | 0.959 | 17.43 | 0.861 | – | – | –
COc1cc(O)c2c(c1)/C=C/CC(O)C(O)C(=O)/C=C/CC(C)OC2=O (stereo not shown) [Oxozeaenol, (5E)-7-] | – | – | – | – | 8.42 | 13.66 | –
CCC1OC2(CCC1C)CC1CC(CC=C(C)CC(C)C=CC=C3COC4C(O)C(C)=CC(C(=O)O1)C34O)O2 (stereo not shown) [Milbemycin A4] | – | – | – | – | 12.17 | 12.96 | –
Cc1c2c(c(O)c3c(O)cccc13)C(=O)C1(O)C(O)=C(C(N)=O)C(=O)C(N(C)C)C1C2.Cl (stereo not shown) [Epianhydrotetracycline hydrochloride] | 8.78 | 0.872 | 1.74 | 0.644 | – | – | –
Enniatin A1 | – | 0.98 | – | 0.8 | – | – | –
CCOC(=O)c1c(C)cc(O)cc1O [Ethyl orsellinate] | 14.45 | 0.987 | 11.67 | 0.817 | – | – | –
CC(C)CCC[C@@H](C)[C@@H]1CC[C@]2(C)C3=C(CC[C@@]12C)[C@@]1(C)CC[C@H](O)C(C)(C)[C@@H]1CC3 [Dihydroeuphol] | 14.92 | 0.986 | 10.05 | 0.759 | – | – | –
Cc1ncc(-c2c[nH]c3ccccc23)o1 [Pimprinine] | – | – | – | – | 11.61 | 11.80 | –

From publication PMC7897990, “TriTOX: A novel Trichomonas vaginalis assay platform for high-throughput screening of compound libraries” (International Journal for Parasitology: Drugs and Drug …, 2021)
